{
  "source": "patent US12606541B2",
  "about": "“PPARg modulators and methods of use” (Eisai R&D Management Co., Ltd., priority 2020, dated 2026)",
  "data": [
    {"biological_target": "T1, His6-TEV-PPARγ-(234-505) (Homo sapiens, UniProt P37231)", "T1 construct": "The His6-TEV-PPARγ-(234-505) protein for assay was expressed and purified; TEV cleavage site (N); made in house", "T1 sequence (P37231 234-505)": "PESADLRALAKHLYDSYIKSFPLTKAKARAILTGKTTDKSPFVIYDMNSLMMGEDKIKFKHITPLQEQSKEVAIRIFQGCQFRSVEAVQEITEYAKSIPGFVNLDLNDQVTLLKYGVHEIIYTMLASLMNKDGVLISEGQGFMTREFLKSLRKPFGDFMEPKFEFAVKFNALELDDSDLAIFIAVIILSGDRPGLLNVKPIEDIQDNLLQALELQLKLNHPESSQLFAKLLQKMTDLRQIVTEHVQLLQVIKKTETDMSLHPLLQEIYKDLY", "test": "TR-FRET Assay to Measure Co-R Peptide Recruitment to PPARγ", "assay_type": "biochemical", "details": "Co-R peptide (SMRT-ID2) recruitment; top final concentration 20 μM; read-out: TR-FRET i-Ag; AC50", "summary_of_the_method": "(§1)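 Corepressor recruitment is measured by adding terbium-labeled anti-His antibody and FITC SMRT-ID2 peptide, at 5 and 200 nM final, after a 20-minute room-temperature protein–compound incubation. After one further hour, signal is converted to percent response between DMSO and 500 nM T0070907 wells.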", "units": {"AC50": "nM"}, "values": [
      {"compound": "COc1cc(-c2cc(C(=O)N3CCC(C(=O)N[C@H]4CC[C@@H](C)CC4)CC3)n[nH]2)ccn1", "note": "[Example 107, 1-(5-(2-methoxypyridin-4-yl)-1H-pyrazole-3-carbonyl)-N-((1s,4s)-4-methylcyclohexyl)piperidine-4-carboxamide]", "AC50": 342}
    ]},
    {"biological_target": "T1, His6-TEV-PPARγ-(234-505)", "test": "TR-FRET Assay to Measure Co-R Peptide Recruitment to PPARγ", "assay_type": "biochemical", "details": "Co-R peptide recruitment to PPARγ; read-out: TR-FRET AC50", "summary_of_the_method": "as §1", "units": {"AC50": "nM"}, "values": [
      {"compound": "COc1cc(-c2cc(C(=O)N3CC4COCC(C3)C4C(=O)NCc3cccc(Cl)c3)n[nH]2)c(Cl)cn1", "note": "(stereo not shown) [7-[5-(5-chloro-2-methoxypyridin-4-yl)-1H-pyrazole-3-carbonyl]-N-[(3-chlorophenyl)methyl]-3-oxa-7-azabicyclo[3.3.1]nonane-9-carboxamide]", "AC50": "> 1000"},
      {"compound": "O=C(c1cc(-c2ccncc2)[nH]n1)N1CCC(C(=O)N2CC[C@@H](O)C2)CC1", "note": "[(3R)-1-{1-[5-(pyridin-4-yl)-1H-pyrazole-3-carbonyl]piperidine-4-carbonyl}pyrrolidin-3-ol]", "AC50": "> 1000"},
      {"compound": "CN(C)[C@@H]1CCN(C(=O)C2CCN(C(=O)c3cc(-c4ccncc4)[nH]n3)CC2)C1", "note": "[(3R)—N,N-dimethyl-1-{1-[5-(pyridin-4-yl)-1H-pyrazole-3-carbonyl]piperidine-4-carbonyl}pyrrolidin-3-amine]", "AC50": "> 1000"},
      {"compound": "COc1cc(-c2cc(C(=O)N3CCC[C@@H](C(=O)NCc4cccc(Cl)c4)C3)n[nH]2)c(F)cn1", "note": "[(3R)—N-[(3-chlorophenyl)methyl]-1-[5-(5-fluoro-2-methoxypyridin-4-yl)-1H-pyrazole-3-carbonyl]piperidine-3-carboxamide]", "AC50": "> 1000"},
      {"compound": "CN(C)[C@H]1CCN(C(=O)C2CCN(C(=O)c3cc(-c4ccncc4)[nH]n3)CC2)C1", "note": "[(3S)—N,N-dimethyl-1-{1-[5-(pyridin-4-yl)-1H-pyrazole-3-carbonyl]piperidine-4-carbonyl}pyrrolidin-3-amine]", "AC50": "> 1000"},
      {"compound": "COc1cc(-c2cc(C(=O)N3CCC[C@H](C(=O)NCc4cccc(Cl)c4)C3)n[nH]2)c(F)cn1", "note": "[(3S)—N-[(3-chlorophenyl)methyl]-1-[5-(5-fluoro-2-methoxypyridin-4-yl)-1H-pyrazole-3-carbonyl]piperidine-3-carboxamide]", "AC50": "> 1000"},
      {"compound": "COc1cc(-c2cc(C(=O)N3CC[C@@H](C(=O)NC4CCS(=N)(=O)CC4)CC34CC4)n[nH]2)c(F)cn1", "note": "(stereo partly drawn) [(7R)-4-[5-(5-fluoro-2-methoxypyridin-4-yl)-1H-pyrazole-3-carbonyl]-N-(1-imino-1-oxo-1λ^6-thian-4-yl)-4-azaspiro[2.5]octane-7-carboxamide]", "AC50": "> 1000"},
      {"compound": "COc1cc(-c2cc(C(=O)N3CC[C@H](C(=O)N[C@@H]4CN(c5ccc(C)nc5)C[C@@H]4F)CC34CC4)n[nH]2)c(F)cn1", "note": "[(7S)—N-[(3R,4S)-4-fluoro-1-(6-methylpyridin-3-yl)pyrrolidin-3-yl]-4-[5-(5-fluoro-2-methoxypyridin-4-yl)-1H-pyrazole-3-carbonyl]-4-azaspiro[2.5]octane-7-carboxamide]", "AC50": "> 1000"},
      {"compound": "O=C(Nc1ncco1)C1CCN(C(=O)c2cc(-c3ccncc3)[nH]n2)CC1", "note": "[N-(1,3-oxazol-2-yl)-1-[5-(pyridin-4-yl)-1H-pyrazole-3-carbonyl]piperidine-4-carboxamide]", "AC50": "> 1000"},
      {"compound": "COc1cc(-c2cc(C(=O)N3CCC(C(=O)NC4CCN(C(C)=O)C4)CC3)n[nH]2)c(Cl)cn1", "note": "(stereo not shown) [N-(1-acetylpyrrolidin-3-yl)-1-[5-(5-chloro-2-methoxypyridin-4-yl)-1H-pyrazole-3-carbonyl]piperidine-4-carboxamide]", "AC50": "> 1000"},
      {"compound": "COc1cc(-c2cc(C(=O)N3CCC(C(=O)NC4CCN(Cc5ccccc5)C4)CC3)n[nH]2)c(Cl)cn1", "note": "(stereo not shown) [N-(1-benzylpyrrolidin-3-yl)-1-[5-(5-chloro-2-methoxypyridin-4-yl)-1H-pyrazole-3-carbonyl]piperidine-4-carboxamide]", "AC50": "> 1000"},
      {"compound": "COc1cc(-c2cc(C(=O)N3CCC(C(=O)NC(C)C4CCC4)CC3)n[nH]2)c(F)cn1", "note": "(stereo not shown) [N-(1-cyclobutylethyl)-1-[5-(5-fluoro-2-methoxypyridin-4-yl)-1H-pyrazole-3-carbonyl]piperidine-4-carboxamide]", "AC50": "> 1000"},
      {"compound": "CS(=O)(=O)N1CCC(NC(=O)C2CCN(C(=O)c3cc(-c4ccncc4)[nH]n3)CC2)CC1", "note": "[N-(1-methanesulfonylpiperidin-4-yl)-1-[5-(pyridin-4-yl)-1H-pyrazole-3-carbonyl]piperidine-4-carboxamide]", "AC50": "> 1000"},
      {"compound": "CN1CCC(NC(=O)C2CCN(C(=O)c3cc(-c4ccncc4)[nH]n3)CC2)CC1", "note": "[N-(1-methylpiperidin-4-yl)-1-[5-(pyridin-4-yl)-1H-pyrazole-3-carbonyl]piperidine-4-carboxamide]", "AC50": "> 1000"},
      {"compound": "O=C(NC1CCCN(c2ccccc2)C1)C1CCN(C(=O)c2cc(-c3ccncc3)[nH]n2)CC1", "note": "(stereo not shown) [N-(1-phenylpiperidin-3-yl)-1-[5-(pyridin-4-yl)-1H-pyrazole-3-carbonyl]piperidine-4-carboxamide]", "AC50": "> 1000"},
      {"compound": "COc1cc(-c2cc(C(=O)N3CCC(C(=O)NC4CCN(C(C)(C)C)CC4)CC3)n[nH]2)c(Cl)cn1", "note": "[N-(1-tert-butylpiperidin-4-yl)-1-[5-(5-chloro-2-methoxypyridin-4-yl)-1H-pyrazole-3-carbonyl]piperidine-4-carboxamide]", "AC50": "> 1000"},
      {"compound": "CC(C)(C)CNC(=O)C1CCN(C(=O)c2cc(-c3ccncc3)[nH]n2)CC1", "note": "[N-(2,2-dimethylpropyl)-1-[5-(pyridin-4-yl)-1H-pyrazole-3-carbonyl]piperidine-4-carboxamide]", "AC50": "> 1000"},
      {"compound": "O=C(Nc1ccc2c(c1)OCCO2)C1CCCN(C(=O)c2cc(-c3ccncc3)[nH]n2)C1", "note": "(stereo not shown) [N-(2,3-dihydro-1,4-benzodioxin-6-yl)-1-[5-(pyridin-4-yl)-1H-pyrazole-3-carbonyl]piperidine-3-carboxamide]", "AC50": "> 1000"},
      {"compound": "Cc1cccc(C)c1NC(=O)C1CCN(C(=O)c2cc(-c3ccncc3)[nH]n2)CC1", "note": "[N-(2,6-dimethylphenyl)-1-[5-(pyridin-4-yl)-1H-pyrazole-3-carbonyl]piperidine-4-carboxamide]", "AC50": "> 1000"},
      {"compound": "CN(CCC#N)C(=O)C1CCN(C(=O)c2cc(-c3ccncc3)[nH]n2)CC1", "note": "[N-(2-cyanoethyl)-N-methyl-1-[5-(pyridin-4-yl)-1H-pyrazole-3-carbonyl]piperidine-4-carboxamide]", "AC50": "> 1000"},
      {"compound": "CCOCCNC(=O)C1CCN(C(=O)c2cc(-c3ccncc3)[nH]n2)CC1", "note": "[N-(2-ethoxyethyl)-1-[5-(pyridin-4-yl)-1H-pyrazole-3-carbonyl]piperidine-4-carboxamide]", "AC50": "> 1000"},
      {"compound": "CC1CCCCC1NC(=O)C1CCN(C(=O)c2cc(-c3ccncc3)[nH]n2)CC1", "note": "(stereo not shown) [N-(2-methylcyclohexyl)-1-[5-(pyridin-4-yl)-1H-pyrazole-3-carbonyl]piperidine-4-carboxamide]", "AC50": "> 1000"},
      {"compound": "O=C(NCCc1ccccc1)C1CCN(C(=O)c2cc(-c3ccncc3)[nH]n2)CC1", "note": "[N-(2-phenylethyl)-1-[5-(pyridin-4-yl)-1H-pyrazole-3-carbonyl]piperidine-4-carboxamide]", "AC50": "> 1000"},
      {"compound": "CC(CNC(=O)C1CCCN(C(=O)c2cc(-c3ccncc3)[nH]n2)C1)c1ccccc1", "note": "(stereo not shown) [N-(2-phenylpropyl)-1-[5-(pyridin-4-yl)-1H-pyrazole-3-carbonyl]piperidine-3-carboxamide]", "AC50": "> 1000"},
      {"compound": "Cc1ccc(NC(=O)C2CCN(C(=O)c3cc(-c4ccncc4)[nH]n3)CC2)cc1Cl", "note": "[N-(3-chloro-4-methylphenyl)-1-[5-(pyridin-4-yl)-1H-pyrazole-3-carbonyl]piperidine-4-carboxamide]", "AC50": "> 1000"},
      {"compound": "O=C(Nc1cccc(Cl)c1)C1CCN(C(=O)c2cc(-c3ccncc3)[nH]n2)CC1", "note": "[N-(3-chlorophenyl)-1-[5-(pyridin-4-yl)-1H-pyrazole-3-carbonyl]piperidine-4-carboxamide]", "AC50": "> 1000"},
      {"compound": "CC(C)CCNC(=O)C1CCN(C(=O)c2cc(-c3ccncc3)[nH]n2)CC1", "note": "[N-(3-methylbutyl)-1-[5-(pyridin-4-yl)-1H-pyrazole-3-carbonyl]piperidine-4-carboxamide]", "AC50": "> 1000"},
      {"compound": "CC1CCCC(NC(=O)C2CCN(C(=O)c3cc(-c4ccncc4)[nH]n3)CC2)C1", "note": "(stereo not shown) [N-(3-methylcyclohexyl)-1-[5-(pyridin-4-yl)-1H-pyrazole-3-carbonyl]piperidine-4-carboxamide]", "AC50": "> 1000"},
      {"compound": "Cc1cnccc1NC(=O)C1CCN(C(=O)c2cc(-c3ccncc3)[nH]n2)CC1", "note": "[N-(3-methylpyridin-4-yl)-1-[5-(pyridin-4-yl)-1H-pyrazole-3-carbonyl]piperidine-4-carboxamide]", "AC50": "> 1000"},
      {"compound": "COc1cc(-c2cc(C(=O)N3CCC(C(=O)NC4CCC(F)(F)CC4)CC3)n[nH]2)ccn1", "note": "[N-(4,4-difluorocyclohexyl)-1-[5-(2-methoxypyridin-4-yl)-1H-pyrazole-3-carbonyl]piperidine-4-carboxamide]", "AC50": "> 1000"},
      {"compound": "O=C(NC1CCC(F)(F)CC1)C1CCN(C(=O)c2cc(-c3ccncc3)[nH]n2)CC1", "note": "[N-(4,4-difluorocyclohexyl)-1-[5-(pyridin-4-yl)-1H-pyrazole-3-carbonyl]piperidine-4-carboxamide]", "AC50": "> 1000"},
      {"compound": "COc1cc(-c2cc(C(=O)N3CCC(C(=O)NC4CCC(C)(C)CC4)CC3)n[nH]2)ccn1", "note": "[N-(4,4-dimethylcyclohexyl)-1-[5-(2-methoxypyridin-4-yl)-1H-pyrazole-3-carbonyl]piperidine-4-carboxamide]", "AC50": "> 1000"},
      {"compound": "O=C(Nc1ccc(Cl)cc1)C1CCCN(C(=O)c2cc(-c3ccncc3)[nH]n2)C1", "note": "(stereo not shown) [N-(4-chlorophenyl)-1-[5-(pyridin-4-yl)-1H-pyrazole-3-carbonyl]piperidine-3-carboxamide]", "AC50": "> 1000"}
    ]}
  ]
}
